The values that follow come from patent US4140764A, “β-Lactamase inhibitors and process for their preparation” (priority 1975, dated 1979).

Data set [1] has as its system Staphylococcus aureus (Russell). In words: Antibacterial synergism, microtitre method (Example 42). The class given is cell-based.
The test system of a further data set is Staphylococcus aureus. The description is as above. The class given is cell-based. Conditions: Table 6.
Data set [2] addresses T1, β-lactamase of E. coli JT410 (Escherichia coli, UniProt P00811).
T1 construct: E. coli JT410; endogenous in cells; host or cells: Escherichia coli JT410
In words: standard enzyme inhibitory assay (Example 49). Conditions: read-out: I50 (converted). The class given is biochemical.

Data set [3] is described as follows: Hydrolysis of the methyl ester to clavulanic acid in pH 7 buffer. Type of data set: physicochemical. An excerpt:
Many esters of clavulanic acid differ from analagous esters of penicillins or cephalosporins in that they show an enhanced tendency to hydrolyze to clavulanic acid under mild conditions. […] Esters which undergo some hydrolysis under mild conditions are included within the formula (IX): [drawing 8] wherein R^1 is a hydrocarbon group of 1- 9 carbon atoms optionally substituted by halogen, lower alkoxy, hydroxyl or optionally salted basic groups of the formula NR^2 R^3 wherein R^2 is a hydrogen atom or a lower alkyl group, R^3 is a hydrogen atom or a lower alkyl group or is attached to R^2 so that NR^2 R^3 is a 5- or 6- membered ring.
The reaction was followed by paper chromatography (bioautographic system). Using the butanol/ethanol/water system to follow the reaction over a period of 2 hours the zone of the methyl ester at Rf 0.79 decreased in size as the zone of clavulanic acid at Rf 0.12 increased.

The test system of a further data set is Proteus mirabilis C889. Nature of the data set: Synergism of clavulanic acid methyl ester, M.I.C. (Example 32). Type of data set: cell-based.
The test system of a further data set is Enterobacter cloacae. In words: Antibacterial synergism, microtitre method (Example 42). Type of data set: cell-based. The following applies: Table 5, inoculum 0.5 × 10^-2, read-out: Minimum Inhibitory Concentration, compound alone.
Data set [4] concerns Klebsiella Aerogenes E 70. The description is as above. Type of data set: cell-based. The following applies: Table 8, strain E 70.
Data set [5] concerns Staphylococcus aureus (Russell). Nature of the data set: Synergism of clavulanic acid methyl ester, M.I.C. (Example 32). The class given is cell-based.
The next data set relates to Escherichia coli B 11. In words: Antibacterial synergism, microtitre method (Example 42). Type of data set: cell-based. The following applies: B11, Table 5, inoculum 0.5 × 10^-2, read-out: Minimum Inhibitory Concentration, compound alone.
The next data set has as its system Klebsiella Aerogenes 62. The data set is described as above. The class given is cell-based. The following applies: Table 8, strain 62.
The subject of the next data set is Klebsiella aerogenes A. Described as above. The class given is cell-based. Conditions: Table 8, strain A.

The structures appear in SMILES notation. Where a name gives a salt, the structure may show the parent alone.

T1 sequence (P00811 20-377): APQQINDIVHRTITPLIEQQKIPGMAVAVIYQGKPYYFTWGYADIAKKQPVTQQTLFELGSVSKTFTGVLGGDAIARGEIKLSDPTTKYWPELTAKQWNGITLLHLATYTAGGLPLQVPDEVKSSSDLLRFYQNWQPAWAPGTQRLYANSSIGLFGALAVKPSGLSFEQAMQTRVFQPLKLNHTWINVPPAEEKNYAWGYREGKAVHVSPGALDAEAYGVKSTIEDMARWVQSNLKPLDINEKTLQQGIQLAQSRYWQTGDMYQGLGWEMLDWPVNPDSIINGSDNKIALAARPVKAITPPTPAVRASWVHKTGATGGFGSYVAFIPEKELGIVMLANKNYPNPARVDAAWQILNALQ

Take `O=C(Cc1cccs1)N[C@@H]1C(=O)N2C(C(=O)[O-])=C(C[n+]3ccccc3)CS[C@H]12` [cephaloridine]: the “Minimum Inhibitory Concentration of cephaloridine with synergist added at 1 μg/ml instead of 5 μg/ml” value in [1] is “Same value”.
Take `O=C(O)[C@H]1/C(=C/CO)O[C@@H]2CC(=O)N21` [clavulanic acid sodium salt, 3-(β-hydroxyethylidine)-7-oxo-4-oxa-1-azabicyclo [3,2,0]heptane-2-carboxylic acid sodium salt]: the “Minimum Inhibitory Concentration, compound alone” value in the data set with Staphylococcus aureus came to 62 µg/mL; in data set [1] (Table 6), 15 µg/mL.
As for `O=C(COc1ccccc1)OC/C=C1\O[C@@H]2CC(=O)N2[C@H]1C(=O)OCc1ccccc1` [benzyl phenoxyacetylclavulanate, Benzyl Phenoxyacetylclavulanate], in data set [2], the IC50 is 3.54 µM.
With `COC(=O)[C@H]1/C(=C/CO)O[C@@H]2CC(=O)N21` [clavulanic acid methyl ester], the “conversion of the ester to clavulanic acid” value in data set [3] (1 mg/ml, 37° C., 0.05M phosphate buffer pH 7, followed over 2 hours) is listed as “Slow conversion”. The “hydrolysis to clavulanic acid” value in [3] (water buffered to pH7) is “slowly hydrolyze”.
In the case of `CC1(C)S[C@@H]2[C@H](NC(=O)[C@H](N)c3ccccc3)C(=O)N2[C@H]1C(=O)O` [ampicillin], the “M.I.C. of ampicillin in the presence of 5 μg/ml. clavulanic acid methyl ester” value in the data set with Proteus mirabilis C889 worked out at 31 µg/mL. Further, the MIC in the data set with Enterobacter cloacae was 250 µg/mL; in the data set with Escherichia coli B 11, greater than 500 µg/mL. Further, the entries for the “MIC of Ampicillin + 5 μg/ml of Benzyl Ester of clavulanic acid” value (in data set [4]; in the data set with Klebsiella Aerogenes 62; in the data set with Klebsiella aerogenes A) were 3.9 µg/mL, 3.9 µg/mL and 1.9 µg/mL, respectively. For the same molecule, the “MIC of Ampicillin + 5 μg/ml of Methyl Ester of clavulanic acid” value was 3.9 µg/mL in data set [4], 3.9 µg/mL in the data set with Klebsiella Aerogenes 62 and 1.9 µg/mL in the data set on Klebsiella aerogenes A. Further, the “M.I.C. of antibiotic in the presence of 1.0 μg/ml. clavulanic acid methyl ester” value in data set [5] is less than 0.4 µg/mL.
